Data taken from patent US10597388B2, “Pyridazinone herbicides” (FMC CORPORATION, priority 2014, dated 2020).

What was measured:
Type in all cases: in vivo
[1] = system: pigweed (Amaranthus retroflexus); assay: Test A greenhouse herbicide test, pre- and postemergence
Outline: (§1)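 Seeds sown in loam–sand blend got a preemergence directed soil spray of compound in non-phytotoxic solvent with surfactant. Postemergence treatment was given at 2–10 cm, one- to two-leaf stage. After ~10 d in greenhouse, injury was rated visually vs untreated controls, 0 (no effect) to 100 (complete control).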

[2] = system: ryegrass, Italian (Italian ryegrass, Lolium multiflorum); assay: as above
Outline: as §1

[3] = system: wheat (Triticum aestivum); assay: as above; conditions: Postemergence; for Plant response rating, Wheat: 125 g ai/ha, 0 to 100 scale where 0 is no effect and 100 is complete control; for Wheat plant response rating: 500 g ai/ha, 0 to 100 scale, 0 is no effect, 100 is complete control
Outline: as §1

[4] = system: blackgrass (Alopecurus myosuroides); assay: Test A greenhouse herbicide test, postemergence; conditions: for Plant response rating, Blackgrass: 125 g ai/ha, 0 to 100 scale where 0 is no effect and 100 is complete control; for Blackgrass plant response rating: 500 g ai/ha, 0 to 100 scale, 0 is no effect, 100 is complete control
Outline: (§2)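 Greenhouse postemergence test: formulated chemicals sprayed on one- to two-leaf plants (2 to 10 cm), grown in loam soil blended with sand. Injury assessed visually about 10 d later against untreated controls, scored 0 (no effect) to 100 (complete control).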

[5] = system: galium (catchweed bedstraw, Galium aparine); assay: Test A greenhouse herbicide test, postemergence; conditions: for Plant response rating, Galium: 125 g ai/ha, 0 to 100 scale where 0 is no effect and 100 is complete control; for Galium plant response rating: 500 g ai/ha, 0 to 100 scale, 0 is no effect, 100 is complete control
Outline: as §2

[6] = system: lambsquarters (Chenopodium album); assay: Test C greenhouse herbicide test, pre- and postemergence
Outline: (§3)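 Two application timings: at sowing into a soil/sand blend, and on 2–18 cm seedlings in peat-vermiculite potting mix. A non-phytotoxic, surfactant-containing solvent carried the compounds. Plants were compared with controls and rated visually on 0–100 after 13–15 d.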

[7] = system: morningglory (Ipomoea coccinea); assay: as above
Outline: as §3

[8] = system: oilseed rape (Brassica napus); assay: as above
Outline: as §3

[9] = system: pigweed (Amaranthus retroflexus); assay: as above
Outline: as §3

[10] = system: ragweed (common ragweed, Ambrosia elatior); assay: as above
Outline: as §3

[11] = system: waterhemp (common waterhemp, Amaranthus rudis); assay: as above
Outline: as §3

[12] = Postemergence, 125 g ai/ha, 0 to 100 scale where 0 is no effect and 100 is complete control
[13] = Postemergence, 500 g ai/ha, 0 to 100 scale, 0 is no effect, 100 is complete control
[14] = Preemergence, 125 g ai/ha, 0 to 100 scale where 0 is no effect and 100 is complete control
[15] = Preemergence, 500 g ai/ha, 0 to 100 scale where 0 is no effect and 100 is complete control
[16] = Postemergence, 31 g ai/ha, 0 to 100 scale (0 no effect, 100 complete control)
[17] = Postemergence, 125 g ai/ha, scale 0 to 100, 0 is no effect, 100 is complete control
[18] = Postemergence, 250 g ai/ha, scale 0 to 100, 0 no effect, 100 complete control, 13 to 15 d
[19] = postemergence, 62 g ai/ha, scale 0 to 100, 0 no effect, 100 complete control
[20] = Preemergence, 31 g ai/ha, scale 0 to 100, 0 is no effect, 100 is complete control
[21] = Preemergence, 62 g ai/ha, scale 0 to 100, 0 is no effect, 100 is complete control
[22] = Preemergence, 125 g ai/ha, scale 0 to 100, 0 is no effect, 100 is complete control
[23] = Preemergence, 250 g ai/ha, scale 0 to 100, 0 no effect, 100 complete control

For `CCC(=O)Oc1c(C)nn(C)c(=O)c1-c1c(C)ccc2ccccc12` [Compound 78], the “Plant response rating, Pigweed” value [1, 12] was 60, the “Pigweed plant response rating” value [1, 13] was 90 and the “Pigweed plant response rating” value [1, 14] was 60. For the same molecule, the “Plant response rating, Pigweed” value [1, 15] was 100, the “Plant response rating, Ryegrass, Italian” value [2, 12] was 80 and the “Ryegrass, Italian plant response rating” value [2, 13] was 100. The “Ryegrass, Italian plant response rating” value [2, 14] was 100, the “Plant response rating, Ryegrass, Italian” value [2, 15] was 100 and the “Plant response rating, Wheat” value [3] was 0. For the same molecule, the “Wheat plant response rating” value [3] was 60, the “Plant response rating, Blackgrass” value [4] was 30 and the “Blackgrass plant response rating” value [4] was 80. For the same molecule, the “Plant response rating, Galium” value [5] was 80, the “Galium plant response rating” value [5] was 100 and the “Lambsquarters plant response rating” value [6, 16] was 40. The “Plant response rating, Lambsquarters” value [6, 17] was 75, the “Plant response rating, Lambsquarters” value [6, 18] was 100 and the “Lambsquarters plant response rating” value [6, 19] was 70. The “Morningglory plant response rating” value [7, 16] was 20, the “Plant response rating, Morningglory” value [7, 17] was 65 and the “Plant response rating, Morningglory” value [7, 18] was 65. For the same molecule, the “Morningglory plant response rating” value [7, 19] was 40, the “Oilseed Rape plant response rating” value [8, 16] was 0 and the “Plant response rating, Oilseed Rape” value [8, 17] was 0. For the same molecule, the “Plant response rating, Oilseed Rape” value [8, 18] was 5, the “Oilseed Rape plant response rating” value [8, 19] was 0 and the “Pigweed plant response rating” value [9, 16] was 50. For the same molecule, the “Plant response rating, Pigweed” value [9, 17] was 75, the “Plant response rating, Pigweed” value [9, 18] was 80 and the “Pigweed plant response rating” value [9, 19] was 60. The “Ragweed plant response rating” value [10, 16] was 10, the “Plant response rating, Ragweed” value [10, 17] was 60 and the “Plant response rating, Ragweed” value [10, 18] was 75. For the same molecule, the “Ragweed plant response rating” value [10, 19] was 20, the “Waterhemp plant response rating” value [11, 16] was 75 and the “Plant response rating, Waterhemp” value [11, 17] was 80. For the same molecule, the “Plant response rating, Waterhemp” value [11, 18] was 90 and the “Waterhemp plant response rating” value [11, 19] was 90.
With `Cc1ccc2sc(Br)c(-c3c(O)c(C)nn(C)c3=O)c2c1` [Compound 79] the “Plant response rating, Pigweed” value [1, 12] was 90, the “Pigweed plant response rating” value [1, 13] was 90 and the “Pigweed plant response rating” value [1, 14] was 100. The “Plant response rating, Pigweed” value [1, 15] was 100, the “Plant response rating, Ryegrass, Italian” value [2, 12] was 80 and the “Ryegrass, Italian plant response rating” value [2, 13] was 90. For the same molecule, the “Ryegrass, Italian plant response rating” value [2, 14] was 80, the “Plant response rating, Ryegrass, Italian” value [2, 15] was 100 and the “Plant response rating, Wheat” value [3] was 0. The “Wheat plant response rating” value [3] was 0, the “Plant response rating, Blackgrass” value [4] was 70 and the “Blackgrass plant response rating” value [4] was 80. For the same molecule, the “Plant response rating, Galium” value [5] was 90, the “Galium plant response rating” value [5] was 90 and the “Lambsquarters plant response rating” value [6, 16] was 85. The “Plant response rating, Lambsquarters” value [6, 17] was 98, the “Plant response rating, Lambsquarters” value [6, 18] was 100 and the “Plant response rating, Lambsquarters” value [6, 20] was 100. For the same molecule, the “Plant response rating, Lambsquarters” value [6, 21] was 95, the “Plant response rating, Lambsquarters” value [6, 22] was 100 and the “Lambsquarters plant response rating” value [6, 23] was 100. For the same molecule, the “Lambsquarters plant response rating” value [6, 19] was 95, the “Morningglory plant response rating” value [7, 16] was 100 and the “Plant response rating, Morningglory” value [7, 17] was 100. The “Plant response rating, Morningglory” value [7, 18] was 98, the “Plant response rating, Morningglory” value [7, 20] was 90 and the “Plant response rating, Morningglory” value [7, 21] was 95. For the same molecule, the “Plant response rating, Morningglory” value [7, 22] was 98, the “Morningglory plant response rating” value [7, 23] was 98 and the “Morningglory plant response rating” value [7, 19] was 100. The “Oilseed Rape plant response rating” value [8, 16] was 20, the “Plant response rating, Oilseed Rape” value [8, 17] was 70 and the “Plant response rating, Oilseed Rape” value [8, 18] was 80. The “Plant response rating, Oilseed Rape” value [8, 20] was 0, the “Plant response rating, Oilseed Rape” value [8, 21] was 35 and the “Plant response rating, Oilseed Rape” value [8, 22] was 30. The “Oilseed Rape plant response rating” value [8, 23] was 30, the “Oilseed Rape plant response rating” value [8, 19] was 25 and the “Pigweed plant response rating” value [9, 16] was 90. For the same molecule, the “Plant response rating, Pigweed” value [9, 17] was 98, the “Plant response rating, Pigweed” value [9, 18] was 98 and the “Plant response rating, Pigweed” value [9, 20] was 100. For the same molecule, the “Plant response rating, Pigweed” value [9, 21] was 100, the “Plant response rating, Pigweed” value [9, 22] was 100 and the “Pigweed plant response rating” value [9, 23] was 100. The “Pigweed plant response rating” value [9, 19] was 98, the “Ragweed plant response rating” value [10, 16] was 90 and the “Plant response rating, Ragweed” value [10, 17] was 98. The “Plant response rating, Ragweed” value [10, 18] was 98, the “Plant response rating, Ragweed” value [10, 20] was 90 and the “Plant response rating, Ragweed” value [10, 21] was 95. The “Plant response rating, Ragweed” value [10, 22] was 98, the “Ragweed plant response rating” value [10, 23] was 100 and the “Ragweed plant response rating” value [10, 19] was 95. For the same molecule, the “Waterhemp plant response rating” value [11, 16] was 85, the “Plant response rating, Waterhemp” value [11, 17] was 80 and the “Plant response rating, Waterhemp” value [11, 18] was 95. The “Plant response rating, Waterhemp” value [11, 20] was 100, the “Plant response rating, Waterhemp” value [11, 21] was 100 and the “Plant response rating, Waterhemp” value [11, 22] was 100. The “Waterhemp plant response rating” value [11, 23] was 100 and the “Waterhemp plant response rating” value [11, 19] was 90.
